Assay results taken from PubChem BioAssay (NCI).
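GI50 marks 50% less growth. At the TGI there is no net growth.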

Columns and labels:
Experiment in all cases: DTP human tumour cell line panel, 384-well format
UACC-257 melanoma = system: UACC-257 melanoma
CAKI-1 renal = system: CAKI-1 renal
HCC-2998 colon = system: HCC-2998 colon
UO-31 renal = system: UO-31 renal
HCT-116 colon = system: HCT-116 colon
PC-3 prostate = system: PC-3 prostate
SF-268 CNS = system: SF-268 CNS
RXF 393 renal = system: RXF 393 renal
RPMI-8226 leukemia = system: RPMI-8226 leukemia
HL-60(TB) leukemia = system: HL-60(TB) leukemia
UACC-62 melanoma = system: UACC-62 melanoma
A498 renal = system: A498 renal
EKVX NSCLC = system: EKVX NSCLC

SMILES: CNC(=O)c1ccccc1Nc1nc(Nc2ccc3c(c2OC)CCC[C@H](N2CCN(CCO)CC2)C3)ncc1Cl
- GI50 (UACC-257 melanoma): 327 nM
- TGI (UACC-257 melanoma): 993 nM
- GI50 (CAKI-1 renal): 511 nM
- TGI (CAKI-1 renal): 1920 nM
- GI50 (HCC-2998 colon): 1210 nM
- TGI (HCC-2998 colon): 2550 nM
- GI50 (UO-31 renal): 1080 nM
- TGI (UO-31 renal): 2290 nM
- GI50 (HCT-116 colon): 934 nM
- TGI (HCT-116 colon): 2320 nM
- GI50 (PC-3 prostate): 2020 nM
- TGI (PC-3 prostate): 5060 nM
- GI50 (SF-268 CNS): 1550 nM
- TGI (SF-268 CNS): 3020 nM
- GI50 (RXF 393 renal): 565 nM
- TGI (RXF 393 renal): 1710 nM
- GI50 (RPMI-8226 leukemia): 1150 nM
- TGI (RPMI-8226 leukemia): 2420 nM
- GI50 (HL-60(TB) leukemia): 215 nM
- TGI (HL-60(TB) leukemia): 551 nM
- GI50 (UACC-62 melanoma): 673 nM
- TGI (UACC-62 melanoma): 1930 nM
- GI50 (A498 renal): 488 nM
- TGI (A498 renal): 1700 nM
- GI50 (EKVX NSCLC): 236 nM
- TGI (EKVX NSCLC): 1320 nM
